Measured values as given in US5098933A, “Pharmaceutically useful Michael addition products of unsaturated aldehydes and ketones and ascorbic acid” (Theracel Corporation, priority 1990, dated 1992).

Experiments:
[1] = test system: splenic lymphocytes; assay: Immunomodulation panel: lymphocyte blastogenesis (Con-A, PHA, PWM); format: in vivo, C57BL/6J mice; settings: 100 mg/kg i.p.
[2] = test system: splenic lymphocytes; assay: as above; format: in vivo, C57BL/6J mice
Experimental: (§1) Daily intraperitoneal injections of KCPBL were administered to normal animals and immunological responsiveness to mitogens and specific antigen evaluated.
(§2) Doses and schedule--Doses were selected to bracket the range generally known to be immunostimulatory in past experiments, 1, 10, and […] daily for four days.
(§3) As an assessment of immunopathology in the above screening test panel, the cellularity of the spleen was evaluated by determination of the total number of splenocytes harvested. Humoral-mediated immunity was measured by enumerating IgM plaque-forming cells to the T-dependent antigen sheep erythrocytes. Cell-mediated immunity was evaluated as described above by determination of the ability of the splenocytes to produce the lymphokine interleukin-2 in response to stimulation by the mitogen concanavalin-A. Another measurement of cell-mediated immunity was the responsiveness of the splenic lymphocytes to the mitogens concanavalin-A (Con-A); phytohemagglutinin (PHA) and pokeweed mitogen (PWM) in the lymphocyte blastogenesis assay. In the latter test, the activation and proliferation of the lymphocytes to the mitogens represents the capability of the cells to sequentially pass from G0 to G1 and the S phse of the cell cycle. The responsiveness of the cells was measured by the uptake of radiolabeled 14C-thymidine.

[3] = test system: CD-1 male mice; assay: Oral Toxicity, single high dose in mice; format: in vivo; settings: 5000 mg/kg p.o., 14 days
Experimental: The objective of this experiment was to observe the clinical effects associated with the peroral administration of a single high dose of KCPBL to mice.
The test animals were CD-1 male mice.
Nine animals constituted the active peroral treatment group; eight animals were used in the vehicle control group.
Each mouse received a single 0.2 ml peroral (p.o.) dose using a 1.0 cc syringe fitted with a curved gavage needle.
Survival statistics were determined after the fourteenth day. All surviving mice were sacrificed on the fifteenth day, selected organs removed and weighed on a AE 100 Mettler balance and then fixed in formalin for histopathologic examination.

[4] = test system: splenic lymphocytes; assay: Immunotoxicity--Multi-dose: lymphocyte blastogenesis / stimulation (PHA, Con A, PWM); format: in vivo, mice
Experimental: The immunotoxicological potential of KCPBL was evaluated in this experiment in which the study drug was administered to CD-1 mice for fourteen days (100 or 1000 mg/kg/day), either perorally (by gavage) or intravenously (tail vein). On the fifteenth day, the mice were weighed and sacrificed. The spleen, lungs, liver, kidneys and thymus were removed from each animal, fixed in formalin and histopathologically evaluated. In addition, a differential white blood cell count was obtained for a peripheral blood sample as well as the following tests performed: spleen cell counts (performed with Coulter Counter) and lymphocyte stimulation assays using PHA, CON-A and PWM techniques.
[…] Mice were administered KCPBL daily for a total of fourteen days via the oral (0.2 ml of a 147.5 mg/ml solution or a 29.5 mg/ml solution by gavage) and intravenous route (0.2 ml of 147.5 mg/ml solution or a 29.5 mg/ml solution by tail vein) to achieve a dose of 100 or 1000 mg/kg, respectively. The test dose was prepared fresh daily and dissolved in sterile non-pyrogenic saline. On the fifteenth day the mice were weighed, sacrificed, and the spleens, lungs, livers, kidneys and thymuses removed. These organs were weighed and, except for the spleens, the formalin-fixed organs were analyzed by a veterinary pathologist. Only two randomly-selected sets of animal organs per treatment group were histopathologically evaluated since the remaining three animals were used to isolate splenic lymphocytes for use in cellular immunoassays.
(§4) A leukocyte differential was obtained on peripheral blood samples and spleen cell counts (performed with Coulter Counter), and an IL-2 induction assessment as well as standard lymphocyte stimulation assays using PHA, CON-A and PWM conducted.
(§5) The individual spleens of three mice from control and test groups were processed to isolate lymphocytes and the protocols for lymphocyte blastogenesis, IL-2 induction and assay were performed. The remaining two mice in each group were sacrificed and their lungs, liver, kidney, and spleen were fixed in formalin and sent to AnMed Biosafe for histopathologic examination.

[5] = test system: IgM plaque-forming cells to sheep erythrocytes; assay: Immunomodulation panel: IgM plaque-forming response to SRBC; format: in vivo, C57BL/6J mice; design: Anti-SRBC Plaque Forming Cells: unit not given here
Experimental: as §1
Inbred C57BL/6J mice were obtained from Jackson Laboratories, Bar Harbor, Me. The animals were held for one week before use in an experiment. Prior to commencement of a study, the animals were placed into groups and weighed.
as §2
Immunization--All animals except for sham controls were injected with 0.5 ml of a 2% suspension of sheep erythrocyte on day zero. This occurred two days following any pretreatment and the day before the initiation of study drug administration.
Sacrifice--Animals were sacrificed by cervical dislocation on day five. The spleens were surgically removed and the following immunological evaluations conducted.
as §3

[6] = test system: IL-2; assay: Immunotoxicity--Multi-dose: IL-2 induction; format: in vivo, mice
Experimental: The study incorporated five treatment groups into its design: group 1, sham intravenous control; group 2, 100 mg/kg/day perorally; group 3, 1000 mg/kg/day intravenously; group 4, […], and, group 5, 100 mg/kg/day intravenously. Mice were administered KCPBL daily for a total of fourteen days via the oral (0.2 ml of a 147.5 mg/ml solution or a 29.5 mg/ml solution by gavage) and intravenous route (0.2 ml of 147.5 mg/ml solution or a 29.5 mg/ml solution by tail vein) to achieve a dose of 100 or 1000 mg/kg, respectively. The test dose was prepared fresh daily and dissolved in sterile non-pyrogenic saline. On the fifteenth day the mice were weighed, sacrificed, and the spleens, lungs, livers, kidneys and thymuses removed. These organs were weighed and, except for the spleens, the formalin-fixed organs were analyzed by a veterinary pathologist. Only two randomly-selected sets of animal organs per treatment group were histopathologically evaluated since the remaining three animals were used to isolate splenic lymphocytes for use in cellular immunoassays.
as §4, §5

[7] = treated vs sham-injected controls

**Q.** `O=C1CCC(C2(O)C(=O)OC3C(O)COC32O)C1` (centres unmarked) [KCPBL] was tested. Which “Lymphocyte Blastogenesis, PHA” value [1] did it give?
**A.** 5849 ± 1227 Counts per minute

**Q.** And the “Lymphocyte Blastogenesis, RPMI” value [1]?
**A.** 83 ± 35 Counts per minute

**Q.** What about the “Lymphocyte Blastogenesis, PHA” value ([2]; 1.0 mg/kg i.p.) of the same molecule?
**A.** 5176 ± 1185 Counts per minute

**Q.** And the “Lymphocyte Blastogenesis, PWM” value ([2]; 1.0 mg/kg i.p.)?
**A.** 1977 ± 540 Counts per minute

**Q.** What about the “Lymphocyte Blastogenesis, RPMI” value ([2]; 1.0 mg/kg i.p.) of the same molecule?
**A.** 95 ± 66 Counts per minute

**Q.** And the “Lymphocyte Blastogenesis, Con-A” value ([2]; 10 mg/kg i.p.)?
**A.** 10074 ± 1881 Counts per minute

**Q.** What about the “Lymphocyte Blastogenesis, PHA” value ([2]; 10 mg/kg i.p.) of the same molecule?
**A.** 5590 ± 864 Counts per minute

**Q.** And the “Lymphocyte Blastogenesis, RPMI” value ([2]; 10 mg/kg i.p.)?
**A.** 95 ± 54 Counts per minute

**Q.** What about the “reactivity of splenocytes to PHA” value ([2]; drug-treated animals) of the same molecule?
**A.** reactivity to PHA was not affected

**Q.** What about the “responsiveness of splenocytes to Con-A” value ([2]; drug-treated animals) of the same molecule?
**A.** slightly more responsive to Con-A

**Q.** And the “responsiveness of splenocytes to PWM” value ([2]; drug-treated animals)?
**A.** significant increases in the responsiveness

**Q.** And the deaths [3]?
**A.** One mouse in the KCPBL group died on the 12th day

**Q.** And the deaths ([3]; listed as BL-012)?
**A.** Only one animal died

**Q.** What about the “Lymphocyte Blastogenesis, Con A” value ([4]; 100 mg/kg IV (group 5)) of the same molecule?
**A.** 17292 ± 3202

**Q.** And the “Lymphocyte Blastogenesis, PHA” value ([4]; 100 mg/kg IV (group 5))?
**A.** 8513 ± 3950

**Q.** And the “Lymphocyte Blastogenesis, PWM” value ([4]; 100 mg/kg IV (group 5))?
**A.** 7125 ± 3899

**Q.** And the “Lymphocyte Blastogenesis, RPMI” value ([4]; 100 mg/kg IV (group 5))?
**A.** 234 ± 116

**Q.** What about the “Lymphocyte Blastogenesis, Con A” value ([4]; 100 mg/kg P.O. (group 4)) of the same molecule?
**A.** 18948 ± 3543

**Q.** What about the “Lymphocyte Blastogenesis, PHA” value ([4]; 100 mg/kg P.O. (group 4)) of the same molecule?
**A.** 13432 ± 4075

**Q.** And the “Lymphocyte Blastogenesis, PWM” value ([4]; 100 mg/kg P.O. (group 4))?
**A.** 6733 ± 1181

**Q.** And the “Lymphocyte Blastogenesis, RPMI” value ([4]; 100 mg/kg P.O. (group 4))?
**A.** 307 ± 52

**Q.** What about the “Lymphocyte Blastogenesis, Con A” value ([4]; 1000 mg/kg IV (group 3)) of the same molecule?
**A.** 14471 ± 2913

**Q.** And the “Lymphocyte Blastogenesis, PHA” value ([4]; 1000 mg/kg IV (group 3))?
**A.** 4473 ± 1181

**Q.** What about the “Lymphocyte Blastogenesis, PWM” value ([4]; 1000 mg/kg IV (group 3)) of the same molecule?
**A.** 4402 ± 3641

**Q.** And the “Lymphocyte Blastogenesis, RPMI” value ([4]; 1000 mg/kg IV (group 3))?
**A.** 203 ± 122

**Q.** And the “Lymphocyte Blastogenesis, Con A” value ([4]; 1000 mg/kg P.O. (group 2))?
**A.** 15151 ± 627

**Q.** What about the “Lymphocyte Blastogenesis, PHA” value ([4]; 1000 mg/kg P.O. (group 2)) of the same molecule?
**A.** 8189 ± 1602

**Q.** What about the “Lymphocyte Blastogenesis, PWM” value ([4]; 1000 mg/kg P.O. (group 2)) of the same molecule?
**A.** 4896 ± 1547

**Q.** And the “Lymphocyte Blastogenesis, RPMI” value ([4]; 1000 mg/kg P.O. (group 2))?
**A.** 244 ± 97

**Q.** What about the “LSA response to PHA, CON-A and PWM lectins” value [4, 7] of the same molecule?
**A.** comparable

**Q.** What about the “PFC increase, significance” value ([5]; 1 mg/kg) of the same molecule?
**A.** values higher than the control group but the difference was not statistically significant

**Q.** What about the “Anti-SRBC Plaque Forming Cells” value ([5]; 1.0 mg/kg i.p.) of the same molecule?
**A.** 192.8 ± 59.

**Q.** What about the “PFC increase, significance” value ([5]; 100 and 10 mg/kg) of the same molecule?
**A.** A significant increase in PFC

**Q.** And the IL-2 ([6]; 100 mg/kg IV (group 5))?
**A.** 41.15 HMU/MI

**Q.** What about the IL-2 ([6]; 100 mg/kg P.O. (group 4)) of the same molecule?
**A.** 44.81 ± 20.8 HMU/MI

**Q.** What about the IL-2 ([6]; 1000 mg/kg IV (group 3)) of the same molecule?
**A.** 18.12 ± 10.50 HMU/MI

**Q.** And the IL-2 ([6]; 1000 mg/kg P.O. (group 2))?
**A.** 21.11 ± 13.69 HMU/MI

**Q.** And the IL-2 production [6, 7]?
**A.** comparable
